The record followed here is patent US7906655B2, “Hepatitis C virus inhibitors” (Bristol-Myers Squibb Company, priority 2008, dated 2011).

The term EC50 denotes the concentration at which the effect is half-maximal.

The first assay has as its system HCV 1b genotype. The experiment in a line: HCV Replicon assay (HCV-neo replicon cells, wild-type). Conditions: HCV 1b genotype replicon; class symbols. Format: cell-based. The procedure, abridged: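 Assay used wild-type HCV genotype 1b replicon cells carrying neo, with luciferase reporter read-outs in some formats.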
In general terms: Replicon systems follow genome replication, usually without infectious particles.
In the case of `COC(=O)NC(C(=O)N1[C@@H]2C[C@@H]2C[C@H]1c1nc2cc(-c3ccc(Oc4cccc5[nH]c([C@@H]6C[C@H]7C[C@H]7N6C(=O)C(NC(=O)OC)c6ccccc6)nc45)cc3)ccc2[nH]1)c1ccccc1` (stereo partly drawn) [Example V10, methyl (2-((1R,3S,5R)-3-(5-(4-((2-((1R,3S,5R)-2-(((methoxycarbonyl)amino)(phenyl)acetyl)-2-azabicyclo[3.1.0]hex-3-yl)-1H-benzimidazol-4-yl)oxy)phenyl)-1H-benzimidazol-2-yl)-2-azabicyclo[3.1.0]hex-2-yl)-2-oxo-1-phenylethyl) carbamate], the EC50 was less than 4.57 nM.

On to `CCC(=O)N1CCC[C@H]1c1nc2cc(C#Cc3ccc4[nH]c([C@@H]5CCCN5C(=O)CC)nc4c3)ccc2[nH]1` [Example M2], for which the EC50 is 4.57 to 99 nM.

The assay is the same for the next values; noted with them: Hepatitis C virus, HCV 1b genotype replicon; class symbols.
For the compound `CC(=O)N1CCC[C@H]1c1nc2ccc(C#Cc3ccc4[nH]c([C@@H]5CCCN5C(=O)[C@H]5CCCO5)nc4c3)cc2[nH]1` [Example M54.25, 5-((2-((2S)-1-acetyl-2-pyrrolidinyl)-1H-benzimidazol-6-yl)ethynyl)-2-((2S)-1-((2R)-tetrahydro-2-furanylcarbonyl)-2-pyrrolidinyl)-1H-benzimidazole], the 50% effective concentration (EC50) lay in the range of 100 to 999 nM.

Turning to `CN(C)C(=O)C[C@H](NC(=O)OCc1ccccc1)c1nc2cc(CCc3ccc4[nH]c([C@H](CC(=O)N(C)C)NC(=O)OCc5ccccc5)nc4c3)ccc2[nH]1` [OL14, benzyl((1S)-1-(5-(2-(2-((1S)-1-(((benzyloxy)carbonyl)amino)-3-(dimethylamino)-3-oxopropyl)-1H-benzimidazol-6-yl)ethyl)-1H-benzimidazol-2-yl)-3-(dimethylamino)-3-oxopropyl)carbamate], the concentration for a half-maximal effect (EC50) was 100 to 999 nM.

Consider `COC(=O)N[C@H](C(=O)N1CCC[C@H]1c1nc2cc(Oc3ccc(-c4ccc5[nH]c([C@@H]6CCCN6C(=O)[C@@H](NC(=O)OC)C(C)C)nc5c4)cc3)ccc2[nH]1)C(C)C` [Example V12, Methyl((1S)-1-(((2S)-2-(5-(4-(2-((2S)-1-((2S)-2-((methoxycarbonyl)amino)-3-methylbutanoyl)-2-pyrrolidinyl)-1H-benzimidazol-5-yl)phenoxy)-1H-benzimidazol-2-yl)-1-pyrrolidinyl)carbonyl)-2-methylpropyl)carbamate], for which the EC50 is less than 4.57 nM.

Consider `CC(=O)N[C@@H](C(=O)N1CCC[C@H]1c1nc2cc(-c3cnc(-c4cccc5[nH]c([C@@H]6CCCN6C(=O)[C@@H](c6ccccc6)N(C)C)nc45)o3)ccc2[nH]1)c1ccccc1` [Example J11.1, N-((1R)-2-((2S)-2-(5-(2-(2-((2S)-1-((2R)-2-(dimethyl-amino)-2-phenylacetyl)-2-pyrrolidinyl)-1H-benzimidazol-4-yl)-1,3-oxazol-5-yl)-1H-benzimidazol-2-yl)-1-pyrrolidinyl)-2-oxo-1-phenylethyl) acetamide], for which the EC50 is less than 4.57 nM.

With `CN(C)[C@@H](C(=O)N1CCC[C@H]1c1nc2cc(-c3cnc(-c4cccc5[nH]c([C@@H]6C[C@@H]7C[C@@H]7N6C(=O)[C@@H](c6ccccc6)N(C)C)nc45)o3)ccc2[nH]1)c1ccccc1` (single isomer, unassigned) [Example J25], the EC50 is less than 4.57 nM.

With `O=C(Cc1ccccc1)N1CCC[C@H]1c1nc2cc(C#Cc3ccc4[nH]c([C@@H]5CCCN5C(=O)Cc5ccccc5)nc4c3)ccc2[nH]1` [Example M37, 5,5′-(1,2-ethynediyl)bis(2-((2S)-1-(phenylacetyl)-2-pyrrolidinyl)-1H-benzimidazole)], the EC50 is less than 4.57 nM.

Consider `O=C(Cc1ccccc1)N1CCC[C@H]1c1nc2cc(CCc3ccc4[nH]c([C@@H]5CCCN5C(=O)Cc5ccccc5)nc4c3)ccc2[nH]1` [Example M38], for which the EC50 was less than 4.57 nM.

As to `COC(=O)N[C@@H](C(=O)N1CCC[C@H]1c1nc2cc(-c3ccc4nc([C@@H]5CCCN5C(=O)[C@H](NC(=O)OC)c5ccccc5)[nH]c4c3)ccc2[nH]1)c1ccccc1` [Example F2, dimethyl(1H,1′H-5,5′-bibenzimidazole-2,2′-diylbis((2S)-2,1-pyrrolidinediyl((1R)-2-oxo-1-phenyl-2,1-ethanediyl)))biscarbamate], the EC50 was less than 4.57 nM.

As to `CCC(=O)N1CCC[C@H]1c1nc2ccc(C#Cc3ccc4[nH]c([C@@H]5CCCN5C(=O)[C@H]5CCCO5)nc4c3)cc2[nH]1` [Example M54.7, 5-((2-((2S)-1-propionyl-2-pyrrolidinyl)-1H-benzimidazol-6-yl)ethynyl)-2-((2S)-1-((2R)-tetrahydro-2-furanylcarbonyl)-2-pyrrolidinyl)-1H-benzimidazole], the EC50 lay in the range of 4.57 to 99 nM.

As to `COC(=O)N[C@@H](C(=O)N1C2C[C@@H]2C[C@H]1c1nc2cc(-c3ccc(-c4ccc5[nH]c([C@@H]6C[C@H]7CC7N6C(=O)[C@H](NC(=O)OC)c6ccccc6)nc5c4)cc3)ccc2[nH]1)c1ccccc1` (single isomer, unassigned) [Example M46.1], the 50% effective concentration (EC50) is less than 4.57 nM.

`O=C(C1CCC1)N1CCC[C@H]1c1nc2cc(CCc3ccc4nc([C@@H]5CCCN5C(=O)C5CCC5)[nH]c4c3)ccc2[nH]1` [Example M45, 2-((2S)-1-(cyclobutylcarbonyl)-2-pyrrolidinyl)-5-(2-(2-((2S)-1-(cyclobutylcarbonyl)-2-pyrrolidinyl)-1H-benzimidazol-6-yl)ethyl)-1H-benzimidazole]: the 50% effective concentration (EC50) lay within 100 to 999 nM.

Consider `O=C(c1ccco1)N1CCC[C@H]1c1nc2cc(C#Cc3ccc4[nH]c([C@@H]5CCCN5C(=O)c5ccco5)nc4c3)ccc2[nH]1` [Example M26.6, 5,5′-(1,2-ethynediyl)bis(2-((2S)-1-(2-furoyl)-2-pyrrolidinyl)-1H-benzimidazole)], for which the EC50 was 4.57 to 99 nM.

For the compound `CC(=O)N[C@@H](C(=O)N1CCC[C@H]1c1nc2cc(-c3cnc(-c4ccc5nc([C@@H]6CCCN6C(=O)[C@H](NC(C)=O)c6ccccc6)[nH]c5c4)o3)ccc2[nH]1)c1ccccc1` [Example J21, N-((1R)-2-((2S)-2-(5-(2-(2-((2S)-1-((2R)-2-acetamido-2-phenylacetyl)-2-pyrrolidinyl)-1H-benzimidazol-6-yl)-1,3-oxazol-5-yl)-1H-benzimidazol-2-yl)-1-pyrrolidinyl)-2-oxo-1-phenylethyl) acetamide], the EC50 is less than 4.57 nM.

`O=C(Cc1cccnc1)N1CCC[C@H]1c1nc2cc(CCc3ccc4[nH]c([C@@H]5CCCN5C(=O)Cc5cccnc5)nc4c3)ccc2[nH]1` [Example M45.2, 5,5′-(1,2-ethanediyl)bis(2-((2S)-1-(3-pyridinylacetyl)-2-pyrrolidinyl)-1H-benzimidazole)]: the EC50 was 4.57 to 99 nM.

Consider `COC(=O)N[C@@H](C)C(=O)N1CCC[C@H]1c1nc2cc(-c3cnc(-c4cccc5[nH]c([C@@H]6CCCN6C(=O)[C@H](C)NC(=O)OC)nc45)o3)ccc2[nH]1` [Example J8, methyl ((1S)-2-((2S)-2-(5-(2-(2-((2S)-1-(N-(methoxy-carbonyl)-L-alanyl)-2-pyrrolidinyl)-1H-benzimidazol-4-yl)-1,3-oxazol-5-yl)-1H-benzimidazol-2-yl)-1-pyrrolidinyl)-1-methyl-2-oxoethyl) carbamate], for which the EC50 is less than 4.57 nM.

In the case of `O=C(c1nc(Cl)cc2ccccc12)N1CCC[C@H]1c1nc2cc(C#Cc3ccc4nc([C@@H]5CCCN5C(=O)c5nc(Cl)cc6ccccc56)[nH]c4c3)ccc2[nH]1` [Example M26.2, 3-chloro-1-(((2S)-2-(5-((2-((2S)-1-((3-chloro-1-isoquinolinyl)carbonyl)-2-pyrrolidinyl)-1H-benzimidazol-6-yl)ethynyl)-1H-benzimidazol-2-yl)-1-pyrrolidinyl)carbonyl)isoquinoline], the EC50 lay within 100 to 999 nM.

For `COC(=O)N[C@H](C)C(=O)N1CCC[C@H]1c1nc2cc(C#Cc3ccc4[nH]c([C@@H]5CCCN5C(=O)[C@@H](C)NC(=O)OC)nc4c3)ccc2[nH]1` [Example M26, methyl ((1R)-2-((2S)-2-(5-((2-((2S)-1-(N-(methoxycarbonyl)-D-alanyl)-2-pyrrolidinyl)-1H-benzimidazol-5-yl)ethynyl)-1H-benzimidazol-2-yl)-1-pyrrolidinyl)-1-methyl-2-oxoethyl)carbamate], the EC50 was less than 4.57 nM.

Regarding `COC(=O)N[C@@H](C(=O)N1CCC[C@H]1c1nc2cc(C#Cc3ccc4[nH]c([C@@H]5CCCN5C(=O)[C@H](NC(=O)OC)c5ccccc5)nc4c3)ccc2[nH]1)c1ccccc1` [Example M23, dimethyl (1,2-ethynediylbis(1H-benzimidazole-5,2-diyl(2S)-2,1-pyrrolidinediyl((1R)-2-oxo-1-phenyl-2,1-ethanediyl)))biscarbamate], the EC50 is less than 4.57 nM.

Turning to `O=C(c1ccccc1)N1CCC[C@H]1c1nc2cc(C#Cc3ccc4nc([C@@H]5CCCN5C(=O)c5ccccc5)[nH]c4c3)ccc2[nH]1` [Example M6, 2-((2S)-1-benzoyl-2-pyrrolidinyl)-5-((2-((2S)-1-benzoyl-2-pyrrolidinyl)-1H-benzimidazol-6-yl)ethynyl)-1H-benzimidazole], the EC50 lay in the range of 4.57 to 99 nM.

`O=C([C@H]1CCCO1)N1CCC[C@H]1c1nc2cc(CCc3ccc4[nH]c([C@@H]5CCCN5C(=O)[C@H]5CCCO5)nc4c3)ccc2[nH]1` [Example M42, 5,5′-(1,2-ethanediyl)bis(2-((2S)-1-((2R)-tetrahydro-2-furanylcarbonyl)-2-pyrrolidinyl)-1H-benzimidazole)]: the EC50 was in the range of 4.57 to 99 nM.

As for `CC(=O)N1CCC[C@H]1c1nc2ccc(C#Cc3ccc4[nH]c([C@@H]5CCCN5C(=O)Cc5cccnc5)nc4c3)cc2[nH]1` [Example M54.21, 5-((2-((2S)-1-acetyl-2-pyrrolidinyl)-1H-benzimidazol-6-yl)ethynyl)-2-((2S)-1-(3-pyridinylacetyl)-2-pyrrolidinyl)-1H-benzimidazole], the 50% effective concentration (EC50) lay within 4.57 to 99 nM.

The same assay, now with this note: Hepatitis C virus, HCV 1b genotype replicon; numeric values.
Consider `CC(C)(C)OC[C@H](NC(=O)OCc1ccccc1)c1nc2cc(CCc3ccc4nc([C@H](COC(C)(C)C)NC(=O)OCc5ccccc5)[nH]c4c3)ccc2[nH]1` [OL2, benzyl ((1R)-1-(5-(2-(2-((1R)-1-(((benzyloxy)carbonyl)amino)-2-tert-butoxyethyl)-1H-benzimidazol-6-yl)ethyl)-1H-benzimidazol-2-yl)-2-tert-butoxyethyl)carbamate], for which the concentration giving a half-maximal response (EC50) was 20 nM.
